# Reference: PubChem BioAssay AID2060910 (Molecular Pharmacology Branch, DTP, NCI, 2025)
# Tested on: 242566-281-R-J2-PDC complex spheroid viability
# Assay: Anticancer human tumor 242566-281-R-J2-PDC patient-derived pancreatic carcinoma cell line growth inhibition [RAS]
# Conditions: for IC50: curve of first compound; for viability, T/C: stronger effect = lower value
# In short: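 Tumour cells grown as complex spheroids with HUVEC endothelial cells and mesenchymal stem cells, treated with RAS pathway inhibitor combinations. Each agent spans half-log steps from near clinical Cmax, or 10 microM where Cmax is unknown.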
# 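Also: spheroids exposed to compound for 7 days before readout.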
# 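For viability, T/C in this document: 100% = DMSO vehicle control wells.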
smiles,measurement,setting,value
Nc1ccn(C2OC(CO)C(O)C2(F)F)c(=O)n1 (configuration not stated) + CCn1c(-c2cc(N3CCN(C)CC3)cnc2C(C)OC)c2c3cc(ccc31)-c1csc(n1)CC(NC(=O)C1CC1C)C(=O)N1CCCC(N1)C(=O)OCC(C)(C)C2,IC50,second compound 0.000949 µM,40.1 nM
same,IC50,second compound 0.003 µM,22.8 nM
same,IC50,second compound 0.00949 µM,< 3.16 nM
same,IC50,second compound 0.03 µM,< 3.16 nM
same,IC50,second compound 0.0949 µM,< 3.16 nM
same,IC50,second compound 0.3 µM,< 3.16 nM
same,"viability, T/C","second compound 0.000949 µM, first compound 0.00316 µM",94.2%
same,"viability, T/C","second compound 0.000949 µM, first compound 0.01 µM",87.7%
same,"viability, T/C","second compound 0.000949 µM, first compound 0.0316 µM",46.2%
same,"viability, T/C","second compound 0.000949 µM, first compound 0.1 µM",36.5%
same,"viability, T/C","second compound 0.000949 µM, first compound 0.316 µM",20.9%
same,"viability, T/C","second compound 0.000949 µM, first compound 1 µM",10.3%
same,"viability, T/C","second compound 0.003 µM, first compound 0.00316 µM",78.2%
same,"viability, T/C","second compound 0.003 µM, first compound 0.01 µM",57.9%
same,"viability, T/C","second compound 0.003 µM, first compound 0.0316 µM",43.5%
same,"viability, T/C","second compound 0.003 µM, first compound 0.1 µM",35.3%
same,"viability, T/C","second compound 0.003 µM, first compound 0.316 µM",24.3%
same,"viability, T/C","second compound 0.003 µM, first compound 1 µM",10.9%
same,"viability, T/C","second compound 0.00949 µM, first compound 0.00316 µM",50.5%
same,"viability, T/C","second compound 0.00949 µM, first compound 0.01 µM",36.2%
same,"viability, T/C","second compound 0.00949 µM, first compound 0.0316 µM",38.3%
same,"viability, T/C","second compound 0.00949 µM, first compound 0.1 µM",28.5%
same,"viability, T/C","second compound 0.00949 µM, first compound 0.316 µM",20.7%
same,"viability, T/C","second compound 0.00949 µM, first compound 1 µM",16.6%
same,"viability, T/C","second compound 0.03 µM, first compound 0.00316 µM",30.6%
same,"viability, T/C","second compound 0.03 µM, first compound 0.01 µM",27.1%
same,"viability, T/C","second compound 0.03 µM, first compound 0.0316 µM",25.5%
same,"viability, T/C","second compound 0.03 µM, first compound 0.1 µM",20.9%
same,"viability, T/C","second compound 0.03 µM, first compound 0.316 µM",16.9%
same,"viability, T/C","second compound 0.03 µM, first compound 1 µM",16.7%
same,"viability, T/C","second compound 0.0949 µM, first compound 0.00316 µM",22.3%
same,"viability, T/C","second compound 0.0949 µM, first compound 0.01 µM",21.4%
same,"viability, T/C","second compound 0.0949 µM, first compound 0.0316 µM",21.3%
same,"viability, T/C","second compound 0.0949 µM, first compound 0.1 µM",19.2%
same,"viability, T/C","second compound 0.0949 µM, first compound 0.316 µM",11.7%
same,"viability, T/C","second compound 0.0949 µM, first compound 1 µM",13.9%
same,"viability, T/C","second compound 0.3 µM, first compound 0.00316 µM",19.7%
same,"viability, T/C","second compound 0.3 µM, first compound 0.01 µM",18.2%
same,"viability, T/C","second compound 0.3 µM, first compound 0.0316 µM",18.5%
same,"viability, T/C","second compound 0.3 µM, first compound 0.1 µM",14.5%
same,"viability, T/C","second compound 0.3 µM, first compound 0.316 µM",13.1%
same,"viability, T/C","second compound 0.3 µM, first compound 1 µM",14.4%
